{"source": "patent US20030077645A1", "about": "“Superfamily receptor chimeras, translocation assay for superfamily receptor ligands, and methods and kits for detecting and characterizing receptor ligands” (priority 2001, published 2003)", "key": {"GFP-RAR (wild type RAR)": {"target": "T1, GFP-RAR (wild type RAR) (Homo sapiens, UniProt P10276)", "T1 sequence (P10276 1-462)": "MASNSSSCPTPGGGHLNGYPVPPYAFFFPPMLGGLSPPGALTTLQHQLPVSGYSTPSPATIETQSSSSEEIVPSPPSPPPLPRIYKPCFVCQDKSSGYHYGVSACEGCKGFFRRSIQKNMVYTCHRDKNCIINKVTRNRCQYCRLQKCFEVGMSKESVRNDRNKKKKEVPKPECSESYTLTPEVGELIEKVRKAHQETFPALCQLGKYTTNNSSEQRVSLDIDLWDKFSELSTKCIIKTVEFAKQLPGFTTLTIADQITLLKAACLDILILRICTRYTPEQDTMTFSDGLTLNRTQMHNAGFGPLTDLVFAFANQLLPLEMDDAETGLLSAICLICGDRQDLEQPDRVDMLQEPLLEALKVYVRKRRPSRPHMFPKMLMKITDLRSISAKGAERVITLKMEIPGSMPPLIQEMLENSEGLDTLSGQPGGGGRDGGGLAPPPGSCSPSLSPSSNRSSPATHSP", "conditions": "100 nM ligand, 1 hour, mouse mammary adenocarcinoma cells", "method": "(§1) Fluorescence Microscopy. For fluorescence microscopy, cells were electroporated with 2 ug GFP-GR-RAR, GFP-GR, or GFP-RAR. […] GFP was excited with a 488 nm laser lines supplied from a air cooled argon laser. GFP emission was monitored between 505 and 590 nm with a pinhole setting of 1.0.\n(§2) FIG. 3 is a series of photographs which depict subcellular trafficking of chimeric receptor. Mouse mammary adenocarcinoma cells were transfected with GFP-GR-RAR (panels A, B, C), GFP-GR (panels D, E, F), or GFP-RAR (panels G, H, I)."}, "GFP-GR-RAR": {"system": "GFP-GR-RAR", "conditions": "100 nM ligand, 1 hour, mouse mammary adenocarcinoma cells", "method": "as §1, §2"}, "GR-RAR chimera": {"system": "GR-RAR chimera", "conditions": "100 nM ATRA, 6 hours", "experimental": "(§3) The 1471.1 cell line was used for this transfection study. Cells were maintained in DMEM with 10% characterized fetal calf serum, L-glutamine, and antibiotics. For transient transfections, 2×10^5 cells were resuspended in cold DMEM without serum with the indicated plasmids and incubated on ice for 1 minute. Electroporations were done in an electroporator at 140 V, 3 pulses and 10 msec pulse length followed by a 10 minute recovery on ice. Cells were then plated and allowed to recover overnight in complete media.\n(§4) Assay of Receptor Activity. Cells were electroporated with 5 ug pLTRLuc, containing the MMTV LTR, and 0.7 ug pCMV-betaGal with or without 10 ug of the indicated receptor expression vector as described above. Cells were plated in duplicate in 100 mm dishes in DMEM containing 10% charcoal/dextran-treated FCS, as described above, and allowed to recover overnight. The next day, cells were treated with the indicated ligand for 6 hours.\n(§5) Transfected cells were treated with the indicated ligand for 6 hours. Fold inductions are shown in the bottom table, and were calculated from the luciferase activity, normalized to beta-galactosidase activity, of ligand induced samples compared to untreated controls."}, "Endogenous GR": {"target": "T2, Endogenous GR (Mus musculus, UniProt P06537)", "T2 sequence (P06537 1-792)": "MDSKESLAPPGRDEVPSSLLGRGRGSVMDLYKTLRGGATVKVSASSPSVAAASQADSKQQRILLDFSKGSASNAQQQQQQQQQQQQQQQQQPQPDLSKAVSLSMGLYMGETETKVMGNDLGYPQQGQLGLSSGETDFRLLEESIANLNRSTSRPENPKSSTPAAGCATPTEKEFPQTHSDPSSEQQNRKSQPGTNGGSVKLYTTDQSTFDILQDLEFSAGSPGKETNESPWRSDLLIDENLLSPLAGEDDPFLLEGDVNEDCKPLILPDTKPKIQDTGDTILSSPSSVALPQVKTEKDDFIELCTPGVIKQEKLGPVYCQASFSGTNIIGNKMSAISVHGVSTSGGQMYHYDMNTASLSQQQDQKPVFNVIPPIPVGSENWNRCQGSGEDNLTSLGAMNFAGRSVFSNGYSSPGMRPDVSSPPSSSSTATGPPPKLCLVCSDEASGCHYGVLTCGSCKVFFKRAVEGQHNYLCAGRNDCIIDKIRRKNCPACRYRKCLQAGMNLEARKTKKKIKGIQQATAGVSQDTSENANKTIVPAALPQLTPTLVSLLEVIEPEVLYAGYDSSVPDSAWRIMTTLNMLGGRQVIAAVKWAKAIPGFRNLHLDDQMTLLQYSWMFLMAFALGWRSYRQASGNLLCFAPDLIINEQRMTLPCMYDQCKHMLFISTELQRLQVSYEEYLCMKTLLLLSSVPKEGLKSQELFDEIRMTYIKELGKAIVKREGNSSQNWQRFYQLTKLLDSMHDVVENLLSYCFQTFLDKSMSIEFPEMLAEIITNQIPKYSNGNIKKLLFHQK", "test": "cell-based", "conditions": "read-out: Fold induction (luciferase activity normalized to beta-galactosidase activity, vs untreated control)", "experimental": "as §3, §4, §5"}}}
{"smiles": "CC1=C(/C=C/C(C)=C/C=C/C(C)=C/C(=O)O)C(C)(C)CCC1", "note": "[ATRA, all-trans retinoic acid]", "values": [{"measurement": "Subcellular distribution of wild type RAR in response to ligand", "setting": "GFP-RAR (wild type RAR)", "value": "always nuclear"}, {"measurement": "Subcellular distribution of GR-RAR in response to ligand", "setting": "GFP-GR-RAR", "value": "translocated to the nucleus"}, {"measurement": "Fold induction (luciferase activity normalized to beta-galactosidase activity, vs untreated control)", "setting": "GR-RAR chimera", "value": 18.6}, {"measurement": "fold induction at 0.1 µM", "setting": "Endogenous GR", "value": 1.27}]}
